According to patent US20070110802A1, “Wet granulation process” (priority 2005, published 2007):

Experiments:
[1] = physchem
Protocol: The pKa of a compound is determined experimentally or it can be calculated, such as with ACDLABS8.0 software.

[2] = pH dependent aqueous solubility of Compound A; format: physicochemical
Protocol: The material was analyzed for hydrate formation.

pKa [1]: ~6.6
solubility ([2]; water, pH 4, aqueous buffer): < 15 µg/mL
Compound: Cc1c(Cl)cccc1S(=O)(=O)Nc1nc(CCN2CCOCC2=O)cs1 [Compound A, 3-chloro-2-methyl-N-(4-(2-(3-oxo-4-morpholinyl)ethyl)-1,3-thiazol-2-yl)benzenesulfonamide]
pH dependent solubility (FIG. 9) ([2]; solubility versus pH): solubility increases at a pH consistent with the approximate pKa value
